From publication PMC10754745, “In silico prediction and in vitro assessment of novel heterocyclics with antimalarial activity” (Parasitology Research, 2023)

What was measured:
P. falciparum 3D7 = test: Growth inhibition of P. falciparum 3D7 cultures, SYBR Green assay; assay type: cell-based, Plasmodium falciparum; conditions: P. falciparum 3D7, 72 h, triplicate
Procedure: Antimalarial activity of the selected compounds was assessed by growth inhibition assays. P. falciparum 3D7 parasites (a chloroquine-sensitive strain) kindly supplied by the Biodefense and Emerging Infections Research Resources Repository (BEI resources, NIAID, NIH, USA) were cultured by the Trager-Jensen method (Trager and Jensen [1976]; Moll et al. [2013]) with modifications. Briefly, parasite-infected red blood cells (RBCs) were kept in continuous culture in complete culture medium (CCM) containing RPMI 1640 (GIBCO), 25 mM hydroxypipazine-N’-2-ethane sulfonic acid (HEPES, Sigma), and 25 μg/mL gentamicin. […] [2013]). Parasite growth was monitored by preparing Giemsa-stained smears. The parasitemia was determined by examination of at least 10 high power magnification fields (hpf) (Moll et al. [2013]), and levels of parasitemia were kept between 5 and 10%. Artemisinin (Sigma) and chloroquine diphosphate salt (Sigma) were used as control drugs. […] Susceptibility assays were performed by the SYBR Green method with modifications (Kato et al. [2018]). Briefly, P. falciparum-infected RBCs cultured under standard conditions were plated at about 2% parasitemia (2% hematocrit), in 96-well microplates, and 10 μM of each compound was added; the final DMSO concentration was less than 0.1%. Parasites were initially incubated for 72 h before addition of lysis buffer (20mM Tris-HCl, 5mM EDTA, 0.008% saponin, 0.08% Triton X-100) supplemented with 0.04% SYBR™ Green I Nucleic Acid (10,000 × in DMSO, Invitrogen), then the microplates were returned to culture for 4 h at room temperature and read in a microplate fluorimeter (Cytation 3 M, Biotek) at excitation 485 nm–emission 530 nm. A control drug for total growth inhibition, a non-drug well and uninfected RBCs were included as positive and negative controls, respectively. The percentage (%) of inhibition was calculated as follows: 1-(fluorescence of treated/nontreated cultures) × 100. […] To do this, parasite cultures were exposed to serial two-fold dilutions of the test compounds ranging from 10 to 0.078 μM. Controls of uninfected RBCs and CQ-treated infected RBCs were included, and the assays were performed in triplicate.

[1] = In vivo toxicity in Galleria mellonella larvae; design: G. mellonella Toxicity class: scale not given here; conditions: Galleria mellonella, in vivo, other: injection; larvae, injection, survival monitored 5 days; read-out: G. mellonella LD50
Procedure: (§1) In vivo toxicity was performed using the invertebrate Galleria mellonella model. Healthy, beige larvae weighing 200–250 mg were obtained from the Entomology laboratory at the University and selected for toxicity assays. Groups of ten six-instar larvae were inoculated with 10 μL or 20 μL of each compound at concentrations equivalent to 3000 mg/kg and incubated at 37 °C in darkness. […] The larvae were initially injected with 1000 mg/kg, and if most larvae (> 60%) survived after 5 days, the assay was performed using higher doses up to 3000 mg/kg (Piatek et al. [2021]).

Galleria mellonella = test: In vivo toxicity in Galleria mellonella larvae; design: G. mellonella Toxicity class: scale not given here; conditions: class from LD50 in larvae
Procedure: as §1

human RBCs = test: Hemolytic activity test; assay type: cell-based; conditions: human RBCs 2% hematocrit, 72 h, 37 °C, tested at 200, 100, 50, 25 μM
Procedure: The ability to induce membrane damage was assessed by testing the hemolytic activity of those compounds showing inhibition of parasite growth. The assay was adapted from Sousa et al. ([2021]) with modifications. Briefly, 180 μL of human RBCs adjusted to 2% hematocrit in phosphate buffered saline (PBS) were placed into a 96-well microplate and subsequently exposed to 200 μM of each selected compound. As a positive control, 20 μL of 1% sodium dodecyl sulfate (SDS) was added, and a non-drug well was included as a negative control. Free hemoglobin was measured after 72 h of incubation at 37 °C by spectrophotometry at 540 nm (Cytation 3 M, Biotek). Nonspecific absorbance was corrected by subtracting the blank (PBS). Determinations were done by triplicate in at least two independent experiments. Compounds with hemolytic activity at 200 μM were further tested at 100 μM, 50 μM, and 25 μM dilutions.

P. falciparum = test system: P. falciparum; design: method as in Shahinas et al. [2013]; conditions: in vitro against P. falciparum; ref Shahinas et al. [2013]; cited from earlier work
[2] = Plasmodium falciparum, 3D7, 72 h

Structure (SMILES) | IC50 (P. falciparum 3D7; [2]) [µM] | LD50 at 5 days [1] [mg/kg] | G. mellonella Toxicity class (Galleria mellonella) | IC50 (P. falciparum 3D7) [µM] | Hemolytic activity (human RBCs) | IC50 (P. falciparum 3D7; listed as 286) [µM] | IC50 (P. falciparum) [µM] | Hemolytic activity (human RBCs; listed as 296) [µM] | IC50 (P. falciparum 3D7; listed as 7) [µM] | IC50 (P. falciparum 3D7; listed as 712) [µM]
CC(=O)N1N=C(c2cccc(Nc3ccncc3)c2)CC1c1ccc2c(c1)OCO2 (stereo not drawn) [UV290] | 1.58 to 2.75 | – | – | – | – | – | – | – | – | –
CC(=O)N1N=C(c2cccc(Nc3ccncc3)c2)CC1c1ccccc1 (stereo not drawn) [UV292] | < 1 | 3000 | 5 | 0.66 ± 0.2 | >100 µM | – | – | – | – | –
CC(=O)N1N=C(c2cccc(Nc3ccncc3)c2)CC1c1ccc(Br)cc1 (stereo not drawn) [UV286] | – | 1500 | 4 | < 1 | >200 µM | 0.444 ± 0.1 | – | – | – | –
CC(=O)N1N=C(c2cccc(Nc3ccncc3)c2)CC1c1ccc(F)cc1 (stereo not drawn) [UV288] | 1.58 to 2.75 | – | – | – | – | – | – | – | – | –
Nc1nc(N)c2c(n1)NC(c1ccccc1)CC(c1cccc(Nc3ccncc3)c1)=N2 (stereo not drawn) [UV802, Pyridyl-amino-pyrimido-diazepina] | – | 2000 | 5 | 0.178 ± 0.04 | > 200 µM | – | – | – | – | –
Cc1ccc(C2CC(c3cccc(Nc4ccncc4)c3)=Nc3c(N)nc(N)nc3N2)cc1 (stereo not drawn) [UV801, Pyridyl-amino- pyrimido- diazepine] | < 1 | 2000 | 5 | 0.537 ± 0.03 | >200 µM | – | – | – | – | –
CC(C)NCCCn1c(Sc2cc3c(cc2I)OCO3)nc2c(N)ncnc21 [PU-H71] | – | – | – | – | – | – | 0.11 | – | – | –
CC(=O)N1N=C(c2cccc(Nc3ccncc3)c2)CC1c1ccc(Cl)cc1 (stereo not drawn) [UV285] | 1.58 to 2.75 | – | – | – | – | – | – | – | – | –
CC(=O)N1N=C(c2cccc(Nc3ccncc3)c2)CC1c1ccc(C)cc1 (stereo not drawn) [UV291] | 1.58 to 2.75 | – | – | – | – | – | – | – | – | –
COc1cc(C2CC(c3cccc(Nc4ccncc4)c3)=NN2c2ccccc2)cc(OC)c1OC (stereo not drawn) [UV297] | < 1 | 2000 | 5 | 0.991 ± 0.28 | >200 µM | – | – | – | – | –
COc1ccc(C2CC(c3cccc(Nc4ccncc4)c3)=NN2c2ccccc2)cc1 (stereo not drawn) [UV296] | < 1 | 2000 | 5 | 0.629 ± 0.1 | induced RBC hemolysis at lower concentrations | – | – | >25 | – | –
O=C(/C=C/c1cccc(Nc2ccnc3cc(Cl)ccc23)c1)c1ccc2c(c1)OCO2 [UV7, Quinolinyl-amino chalcone] | > 1 | 2000 | 5 | ~1 | > 200 µM | – | – | – | 1.07 ± 0.2 | –
Clc1ccc(N2N=C(c3cccc(Nc4ccncc4)c3)CC2c2ccc3c(c2)OCO3)cc1 (stereo not drawn) [UV306, 4-(pyridyl-aminophenyl)-methyledioxyphenyl-N-(4-chlorophenyl)pyrazoline] | < 1 | 2000 | 5 | 0.71 ± 0.1 | 25 µM | – | – | – | – | –
Nc1ncnc2c1N=C(c1cccc(Nc3ccncc3)c1)CC(c1ccccc1)N2 (stereo not drawn) [UV712, Pyridyl-amino-pyrimido-diazepine] | > 1 | 1000 | 4 | ~1 | >200 µM | – | – | – | – | 1.08 ± 0.2
Nc1nc(N)c2c(n1)NC(c1ccc(Cl)cc1)CC(c1cccc(Nc3ccncc3)c1)=N2 (stereo not drawn) [UV797, Pyridyl-amino-pyrimido-diazepine] | – | 2000 | 5 | 0.353 ± 0.019 | > 200 µM | – | – | – | – | –
COc1ccc(C2CC(c3cccc(Nc4ccncc4)c3)=NN2C(C)=O)cc1 (stereo not drawn) [UV287] | 1.58 to 2.75 | – | – | – | – | – | – | – | – | –
